Assays:
[1] = target: T1, Prostaglandin G/H synthase 1 (Ovis aries, UniProt P05979); experiment: In vitro inhibitory activity against prostaglandin G/H synthase 1 from ovine
T1 sequence (P05979 whole entry): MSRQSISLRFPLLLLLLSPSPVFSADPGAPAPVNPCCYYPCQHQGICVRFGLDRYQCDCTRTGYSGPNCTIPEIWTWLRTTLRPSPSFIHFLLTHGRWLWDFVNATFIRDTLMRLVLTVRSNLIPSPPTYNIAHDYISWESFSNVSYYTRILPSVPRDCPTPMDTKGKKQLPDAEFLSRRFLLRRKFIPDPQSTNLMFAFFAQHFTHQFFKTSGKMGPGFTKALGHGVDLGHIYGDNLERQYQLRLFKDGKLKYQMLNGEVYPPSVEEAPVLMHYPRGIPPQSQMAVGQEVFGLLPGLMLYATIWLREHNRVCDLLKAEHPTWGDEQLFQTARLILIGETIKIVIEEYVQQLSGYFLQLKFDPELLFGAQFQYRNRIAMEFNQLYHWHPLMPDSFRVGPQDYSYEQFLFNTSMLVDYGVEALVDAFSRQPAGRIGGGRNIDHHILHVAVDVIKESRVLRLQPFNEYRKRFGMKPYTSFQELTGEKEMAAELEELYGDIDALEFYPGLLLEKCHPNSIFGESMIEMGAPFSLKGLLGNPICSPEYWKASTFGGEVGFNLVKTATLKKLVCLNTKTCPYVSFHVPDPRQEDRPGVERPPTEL

[2] = target: T2, Prostaglandin G/H synthase 2 (Ovis aries, UniProt P79208); experiment: In vitro inhibitory activity against prostaglandin G/H synthase 2 from ovine
T2 sequence (P79208 whole entry): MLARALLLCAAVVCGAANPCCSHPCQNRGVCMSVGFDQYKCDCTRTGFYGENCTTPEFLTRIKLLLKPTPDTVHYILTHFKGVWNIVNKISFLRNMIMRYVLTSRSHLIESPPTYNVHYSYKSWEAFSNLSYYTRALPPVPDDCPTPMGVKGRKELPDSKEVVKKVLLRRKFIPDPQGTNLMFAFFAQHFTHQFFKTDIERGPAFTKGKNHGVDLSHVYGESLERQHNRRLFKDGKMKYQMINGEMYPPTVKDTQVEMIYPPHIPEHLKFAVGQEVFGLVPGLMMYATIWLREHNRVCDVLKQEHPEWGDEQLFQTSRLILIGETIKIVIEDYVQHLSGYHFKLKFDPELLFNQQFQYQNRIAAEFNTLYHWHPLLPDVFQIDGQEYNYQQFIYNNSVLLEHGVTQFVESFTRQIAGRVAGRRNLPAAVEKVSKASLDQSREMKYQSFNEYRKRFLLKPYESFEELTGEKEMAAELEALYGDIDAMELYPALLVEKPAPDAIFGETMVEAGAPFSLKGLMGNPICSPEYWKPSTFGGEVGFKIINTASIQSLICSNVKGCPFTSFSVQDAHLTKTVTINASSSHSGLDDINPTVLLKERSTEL

| SMILES | IC50 [1] [µM] | IC50 [2] [µM] |
| --- | --- | --- |
| CS(=O)(=O)c1ccc(C2=C(c3ccc(S(N)(=O)=O)cc3)COC2=O)cc1 | > 100 | > 100 |
| CS(=O)(=O)c1ccc(C2=C(c3ccc(S(=O)(=O)N=[N+]=[N-])cc3)COC2=O)cc1 | > 100 | 3.1 |
| CC(=O)NS(=O)(=O)c1ccc(C2=C(c3ccc(S(C)(=O)=O)cc3)C(=O)OC2)cc1 | > 100 | 0.05 |
| CS(=O)(=O)c1ccc(C2=C(c3ccc(S(=O)(=O)N=[N+]=[N-])cc3)C(=O)OC2)cc1 | 31.5 | 11 |
| CS(=O)(=O)c1ccc(C2=C(c3ccc(S(N)(=O)=O)cc3)C(=O)OC2)cc1 | > 100 | > 100 |
| CC(=O)NS(=O)(=O)c1ccc(C2=C(c3ccc(S(C)(=O)=O)cc3)COC2=O)cc1 | 3.2 | 4.6 |
| CS(=O)(=O)c1ccc(C2=C(c3ccccc3)C(=O)OC2)cc1 [ROFECOXIB] | – | > 0.43 |

Source: ChEMBL document CHEMBL1147521 (Bioorg Med Chem Lett, 2004)
